Laboratory results from US8663669B2, “Pesticide treatment of soils or substrates with sulphur compounds” (Arkema France, priority 2002, dated 2014).

Columns and labels:
Phytophthora cactorum = assay: Fungicidal efficacy by gassing, colonized millet grains; format: cell-based; set-up: Vitality score Nm (over 12 days): scale not given here; Reduction in viability RV / Reduction in vitality score RNm: unit not given here; conditions: for Reduction in viability RV / Reduction in vitality score RNm: compared with the control
Text: These four organisms are the following:
Phytophthora cactorum, one of the best known representatives of the Phytophthora family, polyphagous fungi which attack mainly tomato, sweet pepper and strawberry plants, these three crops representing the majority of the worldwide consumption of methyl bromide. Phytophthora cactorum, in particular, attacks mainly the strawberry plant and fruit trees.
• Sclerotinia sclerotiorum: sclerotia • Sclerotium rolfsii: sclerotia • Rhizoctonia solani: colonized barley grains (mycelium and sclerotia) • Phytophthora cactorum: colonized millet grains (mycelium, sporangia and oospores) Preparation of the Fungi (24 h Before the Gassing Operation) 1. Preparation of the sclerotia of Sclerotinia sclerotiorum and of Sclerotium rolfsii: The fungi are cultured on malt agar medium until the sclerotia are obtained. The sclerotia are collected in a sterile manner and stored dry in empty Petri dishes until they are used. The sclerotia used for the trial are over 3 months old and are perfectly dormant. 2. Preparation of Phytophthora cactorum and of Rhizoctonia solani: The millet and barley used for the multiplication of the two fungi are moistened with ultrapure water by immersing for 24 hours. The grains are then slightly drained and then distributed into flasks and autoclaved (3 autoclavings at 110° C. for 20 minutes, 3 times at 24 hour intervals). Fragments of fungal culture are introduced into the flasks which are then incubated at 22° C.±2° C. (white light 18 h) until homogeneous colonization is obtained. The grains are then removed from the flasks in a sterile manner, dried in the sterile stream of a safety cabinet and then stored in the dry state until they are used. Conditions for Gassing and for Desorption
All the batches of fungi to be treated are placed for a few hours at the trial temperature (20° C.). Between 35 and 300 units of fungi or “propagules” (grains or sclerotia) are subjected to gassing during each trial.
Each fumigation chamber comprising to one or more species of fungi corresponds to a glass round-bottomed flask which is impervious to the gas and has a volume of 11 litres. Each round-bottomed flask is equipped with branch connections, one at the bottom for introducing the liquid DMDS, one at the top for collecting the air sample with a syringe.
Before introducing the gas, a partial vacuum (−500 mbar) is established in the round-bottomed flask with a vacuum pump. This makes it possible, on the one hand, to avoid the phenomenon of excess pressure due to the expansibility of DMDS in the round-bottomed flask and, on the other hand, to promote better homogeneity of the air-gas mixture in the first few seconds which follow injection. The DMDS (weighed accurately to the mg) is injected with a syringe, in liquid form, through the bottom branch connection, that is to say under the screen placed at half height of the round-bottomed flask and supporting the batches of fungi. After introducing the product, the internal pressure of the round-bottomed flask is re-established at atmospheric pressure. A magnetic stirrer operates during the entire duration of the treatment in order to properly homogenize the air-gas mixture.
At the end of the gassing, the cover for the round-bottomed flask is removed. One minute after this operation, the batches of fungi gassed are taken out and left in the open air for 15 minutes for desorption of the DMDS. They are then transferred into a Petri dish, the latter remaining open for 5 minutes to allow perfect desorption of the gas. […]

[1] = tested on: eggs of nematodes (Meloidogyne arenaria); assay: Ovicidal activity on the eggs of nematodes (number of hatchings); format: in vivo
Protocol: The breeding of the nematodes was carried out on tomato plants. The tests were carried out with, aqueous solutions of DMDS at 0.0001%, 0.1%, 1% and 5% by mass, of DPDS at 1%, 5% and 10% by mass, and of allicin at 0.0003%, 0.0015% and 0.003% by mass, compared with a control consisting of pure water, and repeated five times. The ovicidal activity was also evaluated according to the same modalities, by counting the number of hatchings after 5 to 20 days following exposure to the products.

[2] = CT 1 050 g·h/m^3 (C 15.91 g/m^3, T 66 h)
[3] = CT 1 402 g·h/m^3 (C 21.24 g/m^3, T 66 h)
[4] = CT 1 450 g·h/m^3 (C 30.96 g/m^3, T 48 h)
[5] = CT 1 899 g·h/m^3 (C 28.77 g/m^3, T 66 h)
[6] = CT 1 981 g·h/m^3 (C 30.02 g/m^3, T 66 h)
[7] = CT 2 460 g·h/m^3 (C 51.25 g/m^3, T 48 h)
[8] = CT 2 837 g·h/m^3 (C 42.98 g/m^3, T 66 h)
[9] = CT 3 169 g·h/m^3 (C 48.02 g/m^3, T 66 h)
[10] = CT 3 467 g·h/m^3 (C 52.53 g/m^3, T 66 h)
[11] = CT 419 g·h/m^3 (C 17.46 g/m^3, T 24 h)
[12] = CT 625 g·h/m^3 (C 26.04 g/m^3, T 24 h)
[13] = CT 703 g·h/m^3 (C 29.29 g/m^3, T 24 h)
[14] = CT 907 g·h/m^3 (C 37.79 g/m^3, T 24 h)

CSSC [DMDS, dimethyl disulphide]
Viability V (Phytophthora cactorum; [2]): 95%
Vitality score Nm (over 12 days) (Phytophthora cactorum; [2]): 5.5
Reduction in viability RV (Phytophthora cactorum; [2]): 5.0
Reduction in vitality score RNm (Phytophthora cactorum; [2]): 43.1
Viability V (Phytophthora cactorum; [3]): 97.8%
Vitality score Nm (over 12 days) (Phytophthora cactorum; [3]): 6.6
Reduction in viability RV (Phytophthora cactorum; [3]): 2.2
Reduction in vitality score RNm (Phytophthora cactorum; [3]): 32.2
Viability V (Phytophthora cactorum; [4]): 95%
Vitality score Nm (over 12 days) (Phytophthora cactorum; [4]): 5.4
Reduction in viability RV (Phytophthora cactorum; [4]): 3.4
Reduction in vitality score RNm (Phytophthora cactorum; [4]): 40.7
Viability V (Phytophthora cactorum; [5]): 97.8%
Vitality score Nm (over 12 days) (Phytophthora cactorum; [5]): 5.6
Reduction in viability RV (Phytophthora cactorum; [5]): 2.2
Reduction in vitality score RNm (Phytophthora cactorum; [5]): 42.6
Viability V (Phytophthora cactorum; [6]): 97.8%
Vitality score Nm (over 12 days) (Phytophthora cactorum; [6]): 5.3
Reduction in viability RV (Phytophthora cactorum; [6]): 2.2
Reduction in vitality score RNm (Phytophthora cactorum; [6]): 45.7
Viability V (Phytophthora cactorum; [7]): 43.3%
Vitality score Nm (over 12 days) (Phytophthora cactorum; [7]): 1.7
Reduction in viability RV (Phytophthora cactorum; [7]): 55.9
Reduction in vitality score RNm (Phytophthora cactorum; [7]): 81.2
Viability V (Phytophthora cactorum; [8]): 16.7%
Vitality score Nm (over 12 days) (Phytophthora cactorum; [8]): 0.6
Reduction in viability RV (Phytophthora cactorum; [8]): 83.3
Reduction in vitality score RNm (Phytophthora cactorum; [8]): 93.6
Viability V (Phytophthora cactorum; [9]): 1.1%
Vitality score Nm (over 12 days) (Phytophthora cactorum; [9]): 0.05
Reduction in viability RV (Phytophthora cactorum; [9]): 98.9
Reduction in vitality score RNm (Phytophthora cactorum; [9]): 99.5
Viability V (Phytophthora cactorum; [10]): 0%
Vitality score Nm (over 12 days) (Phytophthora cactorum; [10]): 0
Reduction in viability RV (Phytophthora cactorum; [10]): 100
Reduction in vitality score RNm (Phytophthora cactorum; [10]): 100
Viability V (Phytophthora cactorum; [11]): 91.7%
Vitality score Nm (over 12 days) (Phytophthora cactorum; [11]): 7.7
Reduction in viability RV (Phytophthora cactorum; [11]): 6.8
Reduction in vitality score RNm (Phytophthora cactorum; [11]): 15.5
Viability V (Phytophthora cactorum; [12]): 100%
Vitality score Nm (over 12 days) (Phytophthora cactorum; [12]): 8.05
Reduction in viability RV (Phytophthora cactorum; [12]): −1.7
Reduction in vitality score RNm (Phytophthora cactorum; [12]): 11.9
Viability V (Phytophthora cactorum; [13]): 100%
Vitality score Nm (over 12 days) (Phytophthora cactorum; [13]): 8.3
Reduction in viability RV (Phytophthora cactorum; [13]): −1.7
Reduction in vitality score RNm (Phytophthora cactorum; [13]): 9.1
Viability V (Phytophthora cactorum; [14]): 100%
Vitality score Nm (over 12 days) (Phytophthora cactorum; [14]): 7.2
Reduction in viability RV (Phytophthora cactorum; [14]): −1.7
Reduction in vitality score RNm (Phytophthora cactorum; [14]): 21.2
Ovicidal activity ([1]; 1-10 % by mass): very high ovicidal activity
Number of hatchings (cumulative) ([1]; concentration by mass 1 %, D5, control 141): 7
Number of hatchings (cumulative) ([1]; concentration by mass 1 %, D10, control 179): 7
Number of hatchings (cumulative) ([1]; concentration by mass 1 %, D13, control 184): 7
Number of hatchings (cumulative) ([1]; concentration by mass 1 %, D17, control 184): 7
Number of hatchings (cumulative) ([1]; concentration by mass 5 %, D5, control 141): 2
Number of hatchings (cumulative) ([1]; concentration by mass 5 %, D10, control 179): 2
Number of hatchings (cumulative) ([1]; concentration by mass 5 %, D13, control 184): 5
Number of hatchings (cumulative) ([1]; concentration by mass 5 %, D17, control 184): 5
Number of hatchings (cumulative) ([1]; concentration by mass 10 %, D5, control 141): 0
Number of hatchings (cumulative) ([1]; concentration by mass 10 %, D10, control 179): 2
Number of hatchings (cumulative) ([1]; concentration by mass 10 %, D13, control 184): 5
Number of hatchings (cumulative) ([1]; concentration by mass 10 %, D17, control 184): 5
Reduction in the number of hatchings ([1]; on the last day of observation): approximately 97%
